The numbers were not newly measured in US10306887B2, “Composition and methods for modulation of the octopamine receptor and its homologs” (THE BOARD OF REGENTS OF THE UNIVERSITY OF TEXAS SYSTEMS, priority 2014, dated 2019), which cites them from elsewhere.

Series [1] deals with dissected reproductive system.
Series [2] deals with mated tdc2 or tβh females.

“Also recorded” adds a separate entry of the source.

Regarding `NCC(O)c1ccc(O)cc1` (stereo not drawn) [OA, β,4-dihydroxyphenethylamine], the “muscle contractions in the ovary” value in series [1] (OA applied to dissected reproductive system, ovary) is “enhances muscle contractions in the ovary”. In addition, in series [1] (OA applied to reproductive system, oviduct), the “muscle contractions in the oviduct” value was “inhibits them in the oviduct; also recorded: relaxes the oviduct muscle”. Further, the egg-laying entry in series [2] (OA feeding, mated tdc2 or tβh mutant females) is “sufficient to induce egg-laying”. Besides, the sterility entry in series [2] (feeding OA to mated tβh mutant females) was “rescues sterility”.
